The assay deals with T1, glucokinase (GK) (Homo sapiens, UniProt P35557).
T1 construct: I.D. No. 1 corresponds to residues 12-465 of glucokinase; made in house; host or cells: E. coli DH10b-T1r
T1 sequence (P35557 with tags, fused parts or gaps isoform P35557-2): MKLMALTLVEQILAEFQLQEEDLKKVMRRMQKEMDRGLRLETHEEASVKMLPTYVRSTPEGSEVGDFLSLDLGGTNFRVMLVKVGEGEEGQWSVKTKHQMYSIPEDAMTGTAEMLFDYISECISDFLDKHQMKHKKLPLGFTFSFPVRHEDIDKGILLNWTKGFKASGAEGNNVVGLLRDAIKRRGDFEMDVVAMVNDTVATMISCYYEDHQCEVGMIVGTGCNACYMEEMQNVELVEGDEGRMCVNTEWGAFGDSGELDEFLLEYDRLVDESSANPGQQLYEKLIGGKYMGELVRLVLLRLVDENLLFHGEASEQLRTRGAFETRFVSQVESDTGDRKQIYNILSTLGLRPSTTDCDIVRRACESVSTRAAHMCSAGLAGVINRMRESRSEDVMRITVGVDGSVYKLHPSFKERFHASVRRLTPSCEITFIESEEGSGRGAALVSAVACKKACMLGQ
Nature of the assay: enzymatic glucokinase activity assay (ATP consumption, KinaseGlo luminescence). Particulars: recombinant GK residues 12-465; 5 μM ATP, 5 mM Glucose; Kact = concentration that displays 50% of the maximal increase in GK activity; read-out: pKact. The class given is biochemical. An excerpt:
The activity of compounds as glucokinase activators may be assayed in vitro, in vivo or in a cell line. Provided below is an enzymatic glucokinase activity assay.
Purified glucokinase may be obtained as follows. […] SEQ.
The expression of recombinant glucokinase protein may be carried out by transformation and growth of DH10b-T1r E. coli cells incorporating the (pFLAG-CTC) plasmid in LB media. Protein expression can be induced in this system by the addition of IPTG to the culture medium.
Recombinant protein may be isolated from cellular extracts by passage over Sepharose Q Fast Flow resin (Pharmacia). This partially purified GK extract may then be further purified by a second passage over Poros HQ 10 (Applied Biosystems). The purity of GK may be determined on denaturing SDS-PAGE gel. Purified GK may then be concentrated to a final concentration of 20.0 mg/ml. After flash freezing in liquid nitrogen, the proteins can be stored at −78° C. in a buffer containing 25 mM TRIS-HCl pH 7.6, 50 mM NaCl, and 0.5 mM TCEP.
The activation properties of compounds for GK may be determined using a black 384-well-plate format under the following reaction conditions: 25 mM Hepes pH 7.2, 25 mM NaCl, 10 mM MgCl2, 0.01% Brij35, 1 mM DTT, 5 μM ATP, 5 mM Glucose 2% DMSO. The amount of ATP consumed may be determined quantitatively by addition of equal volume of luciferase reagent (luciferase+beetle luciferin—KinaseGlo Luminescent Kinase Assay kit from Promega). The luminescence intensity may be measured by using the Analyst HT from LJL Biosystems.
The reaction mixture may then be incubated at room temperature for 60 min, and quenched and developed by addition of 10 μL of luciferase reagent. Luminescence intensities of the resulting reaction mixtures may be measured after a 10 min incubation at room temperature. The luminescence intensity may be measured by using the Analyst HT from LJL Biosystems.
pKact values may be calculated by non-linear curve fitting of the compound concentrations and luminescence intensities to a standard inhibition/activation equation.
On the technique in general: Kinase-Glo measures the ATP left after a reaction by luminescence.

`Cc1cc(-c2ccoc2)cc(=O)n1[C@@H](CC1CCCCC1)C(=O)Nc1nccs1` [Example 99, (S)-3-cyclohexyl-2-(4-(furan-3-yl)-6-methyl-2-oxopyridin-1(2H)-yl)-N-(thiazol-2-yl)propanamide]: the EC50 is > 15.8 µM.
For the compound `Cc1cc(S(=O)(=O)C2CC2)cc(=O)n1[C@H](CC1CCCC1)C(=O)Nc1ncc(F)s1` [Example 163, (R)-3-cyclopentyl-2-(4-(cyclopropylsulfonyl)-6-methyl-2-oxopyridin-1(2H)-yl)-N-(5-fluorothiazol-2-yl)propanamide], the EC50 is > 15.8 µM.
On to `Cc1cc(S(=O)(=O)C2CCS(=O)(=O)CC2)cc(=O)n1[C@H](CC1CCCCC1)C(=O)Nc1ncc(Cl)s1` [Example 188, (R)-N-(5-chlorothiazol-2-yl)-2-(4-(1,1-dioxotetrahydrothiopyran-4-ylsulfonyl)-6-methyl-2-oxopyridin-1(2H)-yl)-3-cyclohexylpropanamide], for which the EC50 is > 15.8 µM.
As to `O=C(Nc1ncc(Cl)s1)C(CC1CCOCC1)n1ccc(S(=O)(=O)CC(F)(F)F)cc1=O` (stereo not drawn) [Example 146, N-(5-chlorothiazol-2-yl)-2-(2-oxo-4-(2,2,2-trifluoroethylsulfonyl)pyridin-1(2H)-yl)-3-(tetrahydro-2H-pyran-4-yl)propanamide], the EC50 was > 15.8 µM.
For the compound `O=C(Nc1ncc(F)s1)[C@H](CC1CCOCC1)n1ccc(S(=O)(=O)C2CC2)cc1=O` [Example 35, (S)-2-(4-(cyclopropylsulfonyl)-2-oxopyridin-1(2H)-yl)-N-(5-fluorothiazol-2-yl)-3-(tetrahydro-2H-pyran-4-yl)propanamide], the EC50 was < 1.58 µM.
For `Cc1cc(S(=O)(=O)C2CC2)c(Cl)c(=O)n1[C@H](CC1CCCCC1)C(=O)Nc1ncc(Cl)s1` [Example 78, (R)-2-(3-chloro-4-(cyclopropylsulfonyl)-6-methyl-2-oxopyridin-1(2H)-yl)-N-(5-chlorothiazol-2-yl)-3-cyclohexylpropanamide], the EC50 was in the range of 1.58 to 15.8 µM.
As to `O=C(Nc1ncc(F)s1)C(CC1CCOCC1)n1cc(Cl)c(S(=O)(=O)C2CCCC2)cc1=O` (stereo not drawn) [Example 186, 2-(5-chloro-4-(cyclopentylsulfonyl)-2-oxopyridin-1(2H)-yl)-N-(5-fluorothiazol-2-yl)-3-(tetrahydro-2H-pyran-4-yl)propanamide], the EC50 lay within 1.58 to 15.8 µM.
For `Cc1cc(S(=O)(=O)C2CCCC2)cc(=O)n1[C@H](CC1CCOCC1)C(=O)Nc1ccc(F)cn1` [Example 164, (R)-2-(4-(cyclopentylsulfonyl)-6-methyl-2-oxopyridin-1(2H)-yl)-N-(5-fluoropyridin-2-yl)-3-(tetrahydro-2H-pyran-4-yl)propanamide], the EC50 was > 15.8 µM.
In the case of `Cc1cc(-c2ccc(Cl)cc2)cc(=O)n1[C@@H](CC1CCCCC1)C(=O)Nc1nccs1` [Example 93, (S)-2-(4-(4-chlorophenyl)-6-methyl-2-oxopyridin-1(2H)-yl)-3-cyclohexyl-N-(thiazol-2-yl)propanamide], the EC50 is > 15.8 µM.
Consider `Cc1cc(-c2cn[nH]c2)cc(=O)n1[C@@H](CC1CCCCC1)C(=O)Nc1nccs1` [Example 113, (S)-3-cyclohexyl-2-(6-methyl-2-oxo-4-(1H-pyrazol-4-yl)pyridin-1(2H)-yl)-N-(thiazol-2-yl)propanamide], for which the EC50 was > 15.8 µM.
The figure for `COC(C)(C)c1cnc(NC(=O)[C@H](CC2CCOCC2)n2ccc(S(=O)(=O)C3CC3)cc2=O)s1` [Example 133, (S)-2-(4-(cyclopropylsulfonyl)-2-oxopyridin-1(2H)-yl)-N-(5-(2-methoxypropan-2-yl)thiazol-2-yl)-3-(tetrahydro-2H-pyran-4-yl)propanamide] is 1.58 to 15.8 µM; for `O=C(Nc1nccs1)C(CC1CCOCC1)n1cc(S(=O)(=O)N2CCCC2)ccc1=O` (stereo not drawn) [Example 139, 2-(2-oxo-5-(pyrrolidin-1-ylsulfonyl)pyridin-1(2H)-yl)-3-(tetrahydro-2H-pyran-4-yl)-N-(thiazol-2-yl)propanamide] it is 1.58 to 15.8 µM.
Turning to `Cc1cc(S(=O)(=O)Cc2cccs2)cc(=O)n1C(CC1CCCCC1)C(=O)Nc1ncc(Cl)s1` (stereo not drawn) [Example 80, N-(5-chlorothiazol-2-yl)-3-cyclohexyl-2-(6-methyl-2-oxo-4-(thiophen-2-ylmethylsulfonyl)pyridin-1(2H)-yl)propanamide], the EC50 lay in the range of 1.58 to 15.8 µM.
For `Cc1cc(S(=O)(=O)C2CCOCC2)cc(=O)n1[C@@H](CC1CCCC1)C(=O)Nc1ncc(F)s1` [Example 193, (S)-3-cyclopentyl-N-(5-fluorothiazol-2-yl)-2-(6-methyl-2-oxo-4-(tetrahydro-2H-pyran-4-ylsulfonyl)pyridin-1(2H)-yl)propanamide] the value was 1.58 to 15.8 µM.
Take `Cc1cc(-c2csc3ccccc23)cc(=O)n1[C@@H](CC1CCCCC1)C(=O)Nc1nccs1` [Example 107, (S)-2-(4-(benzo[b]thiophen-3-yl)-6-methyl-2-oxopyridin-1(2H)-yl)-3-cyclohexyl-N-(thiazol-2-yl)propanamide]: the EC50 was > 15.8 µM.
With `Cc1cc(-c2cccc(C#N)c2)cc(=O)n1[C@@H](CC1CCCCC1)C(=O)Nc1nccs1` [Example 97, (S)-2-(4-(3-cyanophenyl)-6-methyl-2-oxopyridin-1(2H)-yl)-3-cyclohexyl-N-(thiazol-2-yl)propanamide], the EC50 was > 15.8 µM.
The figure for `O=C(Nc1ncc(Cl)s1)[C@H](CC1CCOCC1)n1ccc(S(=O)(=O)CC(F)(F)F)cc1=O` [Example 149, (S)-N-(5-chlorothiazol-2-yl)-2-(2-oxo-4-(2,2,2-trifluoroethylsulfonyl)pyridin-1(2H)-yl)-3-(tetrahydro-2H-pyran-4-yl)propanamide] is 1.58 to 15.8 µM; for `COc1ccc(-c2cc(C)n([C@@H](CC3CCCCC3)C(=O)Nc3nccs3)c(=O)c2)cc1` [Example 96, (S)-3-cyclohexyl-2-(4-(4-methoxyphenyl)-6-methyl-2-oxopyridin-1(2H)-yl)-N-(thiazol-2-yl)propanamide] it is > 15.8 µM; for `Cc1cc(S(=O)(=O)Cc2cccs2)cc(=O)n1C(CC1CCOCC1)C(=O)Nc1ncc(Cl)s1` (stereo not drawn) [Example 134, N-(5-chlorothiazol-2-yl)-2-(6-methyl-2-oxo-4-(thiophen-2-ylmethylsulfonyl)pyridin-1(2H)-yl)-3-(tetrahydro-2H-pyran-4-yl)propanamide] it is < 1.58 µM.
In the case of `O=C(Nc1ncc(F)s1)[C@H](CC1CCOCC1)n1cc(Cl)c(S(=O)(=O)C2CC2)cc1=O` [Example 198, (S)-2-(5-chloro-4-(cyclopropylsulfonyl)-2-oxopyridin-1(2H)-yl)-N-(5-fluorothiazol-2-yl)-3-(tetrahydro-2H-pyran-4-yl)propanamide], the EC50 lay in the range of 1.58 to 15.8 µM.
For `Cc1cc(C#CCO)cc(=O)n1[C@H](CC1CCOCC1)C(=O)Nc1ncc(Cl)s1` (stereo in doubt) [Example 137, N-(5-chlorothiazol-2-yl)-2-(4-(3-hydroxyprop-1-ynyl)-6-methyl-2-oxopyridin-1(2H)-yl)-3-(tetrahydro-2H-pyran-4-yl)propanamide] the value was > 15.8 µM.
For `COC(=O)c1cnc(NC(=O)[C@H](CC2CCOCC2)n2ccc(S(=O)(=O)C3CCCC3)cc2=O)s1` [Example 45, (5)-methyl 2-(2-(4-(cyclopentylsulfonyl)-2-oxopyridin-1(2H)-yl)-3-(tetrahydro-2H-pyran-4-yl)propanamido)thiazole-5-carboxylate] the value was < 1.58 µM; for `Cc1cc(S(=O)(=O)C2CC2)cc(=O)n1[C@@H](CC1CCCC1)C(=O)Nc1ncc(Cl)s1` [Example 183, (S)-N-(5-chlorothiazol-2-yl)-3-cyclopentyl-2-(4-(cyclopropylsulfonyl)-6-methyl-2-oxopyridin-1(2H)-yl)propanamide], < 1.58 µM.
The figure for `Cc1cc(S(=O)(=O)C2CCCC2)cc(=O)n1[C@@H](CC1CCOCC1)C(=O)Nc1ccc(Cl)cn1` [Example 166, (S)-N-(5-chloropyridin-2-yl)-2-(4-(cyclopentylsulfonyl)-6-methyl-2-oxopyridin-1(2H)-yl)-3-(tetrahydro-2H-pyran-4-yl)propanamide] is < 1.58 µM.

Values taken from patent US8163779B2, “Glucokinase activators” (Takeda San Diego, Inc., priority 2006, dated 2012).
